One may read the IC50 as the concentration at which inhibition is half-maximal.

Bounds are passed on as bounds.

In one assay the test system is KB-S15 cells. As to the kind of experiment: Clonogenic assay, KB-S15. Format: cell-based, Human. The method, then:
Human lung adenocarcinoma A549 cells and NTUB1 bladder cancer cells were maintained in RPMI supplied with 10% fetal bovine serum. […] KB-derived MRP1-expressing cell line, KB-7D, was maintained in growth medium supplemented with 7 µM VP-16.
Two hundred cells in logarithmic growth phase were seeded in a 6-well plate. The cells were exposed to various concentrations of the test drugs for a three-generation period. At the end of the incubation period, cells were fixed and stained with 50% ethanol containing 0.5% methylene blue for 30 min. The plates were washed five times with water and allowed to air-dry. Colonies were countered manually. […] Each value represents the average of at least three independent experiments run in triplicates.

A further assay deals with T1, cMET (Homo sapiens, UniProt P08581).
T1 construct: GST-tagged c-Met (residues K956-S1390) containing kinase domain; GST; made in house; host or cells: Sf9 insect cells
T1 sequence (P08581 956-1390): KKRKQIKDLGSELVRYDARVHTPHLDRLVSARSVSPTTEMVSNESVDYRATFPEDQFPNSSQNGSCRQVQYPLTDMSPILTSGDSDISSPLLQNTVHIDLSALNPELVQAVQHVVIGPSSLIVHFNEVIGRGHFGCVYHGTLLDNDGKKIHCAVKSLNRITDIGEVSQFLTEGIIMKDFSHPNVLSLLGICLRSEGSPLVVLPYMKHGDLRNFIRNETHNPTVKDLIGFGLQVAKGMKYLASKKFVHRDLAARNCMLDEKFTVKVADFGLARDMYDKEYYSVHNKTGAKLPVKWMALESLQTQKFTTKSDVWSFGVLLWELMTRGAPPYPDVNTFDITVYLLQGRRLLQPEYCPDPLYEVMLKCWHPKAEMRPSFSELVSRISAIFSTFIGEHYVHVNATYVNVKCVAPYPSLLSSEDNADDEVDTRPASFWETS
As to the kind of experiment: Kinase inhibition assay, cMET. The class given is biochemical. How it is done: c-Met – The recombinant GST-tagged c-Met (residues K956-S1390) containing kinase domain was expressed in Sf9 insect cells. The kinase assay was carried out in 96-well plates with the tested compound at 30°C for 120 min.
(§1) Composition of the reaction buffers used in different kinase inhibitory assays is described in Figure S3.
25 mM HEPES pH 7.4, 10mM MgCl2, 4 mM MnCl2, 0.5mM Na3VO4, 2 mM DTT, 0.02% Triton X100, 0.01% BSA, 1 mM ATP, 2 mM polyGlu4:Tyr peptide, 75 ng recombinant Met.

The next assay concerns the target T2, VEGFR2 (Homo sapiens, UniProt P35968).
T2 construct: VEGFR2 (residues V789-V1356) containing kinase domain; GST; made in house; host or cells: Sf9 insect cells
Put plainly: Kinase inhibition assay, VEGFR2. The class given is biochemical. The method, then:
VEGFR1/2 – The recombinant GST-tagged VEGFR1 (residues R781-I1338) or VEGFR2 (residues V789-V1356) containing kinase domain were expressed in Sf9 insect cells. The kinase assay was carried out in 96-well plates with the tested compound at 30°C for 120 min.
as §1
25 mM HEPES pH 7.4, 10 mM MgCl2, 4mM MnCl2, 0.5mM Na3VO4, 2 mM DTT, 0.02% Triton X100, 0.01% BSA, 1 mM ATP, 2 mM polyGlu4:Tyr peptide, 50~100 ng recombinant VEGFR1 or VEGFR2.

A further assay addresses T3, CHK2 (Homo sapiens, UniProt O96017).
T3 construct: CHK2 (residues M1-L543) containing kinase domain; His; made in house; host or cells: Sf9 insect cells
Put plainly: Kinase inhibition assay, CHK2. Format: biochemical. The method, then: CHK1/2 – The recombinant His-tagged CHK1 (residues M1-T476) or CHK2 (residues M1-L543) containing kinase domain were expressed in Sf9 insect cells. The kinase assay was carried out in 96-well plates with the tested compound at 30°C for 120 min.
as §1
25 mM HEPES pH 7.4, 10mM MgCl2, 4mM MnCl2, 0.5mM Na3VO4, 2 mM DTT, 0.02% Triton X100, 0.01% BSA, 1 mM ATP, 2 mM CHK peptide ([…]), 50~500 ng recombinant CHK1 or CHK2.

The subject of assay [1] is HONE-1 cells. Put plainly: Endo-replication (polyploidy), microscopy and flow cytometry, HONE-1. Format: cell-based, Human. The settings on record: HONE-1, 48 h. How it is done:
Cell cycle progression was monitored using flow cytometry. After drug treatment, cells were trypsinized, washed with PBS and fixed in 80% ethanol at −20°C for 1 h. The fixed cells were stained with propidium iodide (containing RNase) at room temperature in the dark for 20 min. The DNA content was determined by a fluorescence-activated cell sorting IV flow cytometer (BD Biosciences, Franklin Lakes, NJ). For each analysis, 10,000 cells were counted and the percentage of cells in each phase was calculated using the ModFit LT software (Verity Software House, Topsham, ME). Experiments were repeated independently at least three times.
(Flow cytometry measures light scatter and fluorescence of single cells or particles in a stream.)

The test system of assay [2] is HONE-1 cells. As to the kind of experiment: Western blot of Histone H3 phosphorylation and cyclin B1, HONE-1. The settings on record: HONE-1, 48 h. Format: cell-based, Human. The method, then: Cells were lysed with ice-cold lysis buffer (10 mM Tris, 1 mM EDTA, 1 mM DTT, 60 mM KCl, 0.5% NP-40 and protease inhibitors). […] The resolved proteins were electrophoretically transferred to PVDF membranes (Amersham Life Science, Amersham, U.K.) for Western blot analysis. The membranes were blocked with 5% non-fat milk at room temperature for two hours, washed twice with TBST (1% Tween) and then incubated with either anti-phosphorylated Aurora-A/-B/-C kinase antibody (#2914S, Cell Signaling Technology, Danvers, MA), anti-Aurora-A and -B kinase antibody (#ab1287 and #ab2254, Abcam, Cambridge, MA), anti-phosphorylated Histone H3 antibody (#9701, Cell Signaling Technology, Danvers, MA), anti-Histone H3 antibody (#9715, Cell Signaling Technology, Danvers, MA), anti-Cyclin B1 antibody or anti-Actin antibody (#sc-245 and #sc-130065, Santa Cruz Biotechnology, Santa Cruz, CA) overnight at 4°C. Membranes were washed twice with TBST then subsequently incubated with a horseradish peroxidase-conjugated secondary antibody (Santa Cruz Biotechnology, Santa Cruz, CA) for 1 hour at room temperature. Immunoreactivity was detected by Enhanced Chemiluminescence (Amersham International, Buckingham, U.K.) and autoradiography. Experiments were repeated independently at least two times.
In general terms: In western blotting, separated proteins are transferred to a membrane and probed.

T2 sequence (P35968 789-1356): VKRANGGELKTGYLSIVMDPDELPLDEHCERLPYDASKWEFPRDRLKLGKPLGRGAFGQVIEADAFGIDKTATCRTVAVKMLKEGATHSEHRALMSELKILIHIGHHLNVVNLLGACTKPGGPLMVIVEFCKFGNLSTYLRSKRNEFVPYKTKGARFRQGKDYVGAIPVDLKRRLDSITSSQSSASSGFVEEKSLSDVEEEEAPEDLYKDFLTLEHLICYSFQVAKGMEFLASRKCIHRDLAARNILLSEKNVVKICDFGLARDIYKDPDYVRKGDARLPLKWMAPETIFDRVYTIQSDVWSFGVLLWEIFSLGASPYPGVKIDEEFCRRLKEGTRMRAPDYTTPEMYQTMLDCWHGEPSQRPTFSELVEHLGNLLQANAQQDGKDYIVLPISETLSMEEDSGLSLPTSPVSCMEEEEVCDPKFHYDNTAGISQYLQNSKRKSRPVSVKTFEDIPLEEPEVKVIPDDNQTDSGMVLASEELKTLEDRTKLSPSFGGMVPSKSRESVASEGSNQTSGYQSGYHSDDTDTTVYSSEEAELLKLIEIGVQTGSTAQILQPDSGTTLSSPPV
T3 sequence (O96017 whole entry, the tested form may be a part): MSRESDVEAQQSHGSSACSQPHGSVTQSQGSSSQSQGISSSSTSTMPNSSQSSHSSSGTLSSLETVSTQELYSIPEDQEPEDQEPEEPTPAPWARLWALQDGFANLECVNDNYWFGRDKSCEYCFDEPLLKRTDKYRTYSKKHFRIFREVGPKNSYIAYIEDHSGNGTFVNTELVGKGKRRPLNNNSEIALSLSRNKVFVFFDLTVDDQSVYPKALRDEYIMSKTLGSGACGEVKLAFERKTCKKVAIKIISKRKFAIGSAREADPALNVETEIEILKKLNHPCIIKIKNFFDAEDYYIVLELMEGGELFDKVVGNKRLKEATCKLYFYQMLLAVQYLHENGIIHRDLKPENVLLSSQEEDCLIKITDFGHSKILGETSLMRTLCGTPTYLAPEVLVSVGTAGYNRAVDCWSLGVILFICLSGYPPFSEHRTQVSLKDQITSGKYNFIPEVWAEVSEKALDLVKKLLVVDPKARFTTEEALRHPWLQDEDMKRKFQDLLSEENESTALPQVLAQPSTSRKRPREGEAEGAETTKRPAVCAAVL

In the case of `CN(C)Cc1ccccc1NC(=O)Nc1ccc(CCNc2ncnc3oc(-c4ccccc4)c(Cl)c23)cc1` [BPR1K653], the IC50 with KB-S15 cells (Homo sapiens, KB-S15, paclitaxol resistant, MDR1 ↑, read-out: IC50, anti-proliferative activity) was 0.011 ± 0.004 µM; against cMET, more than 10 µM; against VEGFR2 it was more than 10 µM; on CHK2, 2.3 µM. Besides, the “Fold difference as compare to the IC50 in the respective parental cells” value in the assay on KB-S15 cells (KB-S15 vs KB) stood at 1 fold. Moreover, the “formation of polyploidy (populations >4N)” value with HONE-1 cells [1] was “promoted the formation of polyploidy”. Besides, in the assay with HONE-1 cells [2], the “phosphorylation of Histone H3 and expression of cyclin B1” value is listed as “decreased”.

For the origin of these results see PMC3160846 (PLoS ONE, 2011).
